# Results published in patent publication US20030228566A1, “Method of and apparatus for screening for drug candidates” (BioTechPlex Corporation, priority 2002, published 2003).
# Test system: normal human bronchial epithelial cells (NHBE)
# Test: Cumulative dose kinetic responses of intracellular Ca++, Cl- and cell membrane potential (simultaneous three-fluorophore photon counting: Fluo-3, di-MEQ, RH421)
# Assay type: cell-based
# Details: for intracellular Ca++ response / intracellular Cl- response / membrane potential response: cumulative dosing
# Procedure: Normal human bronchial/tracheal epithelial cells (NHBE, Clonetics) were cultured in T-25 cm^2 flasks at 37° C., 5% CO2 using Bronchial/Tracheal Epithelial Cell Growth Medium containing Retinoic Acid (BEGM, w/RA, Clonetics). When the NHBE cells in the T-25 flasks reached 60%-80% confluency, the cells were passaged using a seeding density of 3500 cells/cm^2. A portion of the cells was passaged in T-25 flasks again while the remaining cells were seeded on UV-exposed Vitrogen (pH balanced 1:1 BEGM to Vitrogen) coated 4-well cover glass chambers (LabTek II). NHBE cells normally attached to the collagen-coated cover glass chamber within 24 hrs. Prior to these cells reaching 60% confluency, they were used for all the experiments described below. Cells used in all the experiments were either 2nd or 3rd passage cells maintained in Bronchial/Tracheal Epithelial Cell Growth Medium with Retinoic Acid (BEGM, w/RA, Clonetics).
# The following procedures for loading the cells with fluorophore were employed. Balanced Hank's (BH) solution without phenol red was used as the medium for all the fluorophore preparations and cell washings unless stated otherwise. Fluo-3 (a Ca^++ indicator), di-MEQ (a Cl^− indicator) and RH421 (a cell membrane potential indicator) were loaded into cells sequentially at room temperature. Cells were first incubated with 8 μM Fluo-3 solution for 60 minutes, followed by incubating with 50 μM di-MEQ for 5 minutes and then finally with 10 μM RH421 for 5 minutes. Extraneous dyes were washed with BH solution between each fluorophore loading procedure. The cells were allowed to stabilize in BEGM for a minimum of 15 minutes at room temperature prior to the beginning of each experiment.
# Experiments were performed at room temperature. All tested agents were prepared in Balanced Hank's Solution. One of the wells of the cover glass chamber was placed on the stage of the inverted microscope and the cells loaded with the fluorophores were visually focused with the violet, green and orange emitted light from the cells approximately in the same focal plane. At a sampling frequency of 100 Hz, cells with the following photon counts were chosen for the study: 20 to 50 counts per channel (cpc) for Ca^++ fluorescence, 70 to 200 cpc for Cl^− fluorescence, and 20 to 50 cpc for cell membrane potential fluorescence. After establishing a 2 minute baseline, increasing doses of the agent of interest were added topically to the wells 2 minutes apart. At the end of each experiment, a toxic dose of the agent of interest was added to the sample to either shrink or swell the cells beyond their normal cell volume regulatory range. This caused the fluorescence signals of each of these fluorophores to reach either maximum or minimum values. […] Background fluorescence was recorded using a cell free area of the same well. If the signal to background ratio was not higher than a factor of 10, the experiments were also discarded.
# [1] = 25 μM to 500 μM cumulative dosing, general statement
# [2] = Glibenclamide concentrations below 500 μM
Compound,"[Cl-]i (MEQ fluorescence inversely proportional to [Cl-]i), overall effect [1]","cell membrane polarization, overall effect [1]",intracellular Ca++ response [2],intracellular Cl- response [2],membrane potential response [2],intracellular Ca++ response (concentration 500 μM),intracellular Cl- response (concentration 500 μM),membrane potential response (concentration 500 μM),intracellular Ca++ response (concentration 0.1 mM),intracellular Cl- response (concentration 0.1 mM),membrane potential response (concentration 0.1 mM),intracellular Ca++ response (concentration 1 mM),intracellular Cl- response (concentration 1 mM),membrane potential response (concentration 1 mM)
COc1ccc(Cl)cc1C(=O)NCCc1ccc(S(=O)(=O)NC(=O)NC2CCCCC2)cc1 [Glibenclamide],increased,hyperpolarized,little affected,declines as Glibenclamide concentration increases,little affected,rapid increase,simultaneous drop,simultaneous increase,–,–,–,–,–,–
"O=c1ccn([C@@H]2O[C@H](COP(=O)(O)OP(=O)(O)OP(=O)(O)O)[C@@H](O)[C@H]2O)c(=O)[nH]1 [UTP, uridine triphosphate]",–,–,–,–,–,–,–,–,rapid increase,essentially no changes,essentially no changes,rapid increase,essentially no changes,essentially no changes
